{"source": "BindingDB's records for doi:10.1074/jbc.M113.507525", "about": "(Western University, 2013)", "assay_in_all_cases": "SelectScreen Biochemical Kinase Assay", "key": {"[1]": {"target": "Phosphatidylinositol 4,5-bisphosphate 3-kinase catalytic subunit alpha isoform (Mus musculus, UniProt P42337)", "sequence (P42337 whole entry, canonical isoform)": "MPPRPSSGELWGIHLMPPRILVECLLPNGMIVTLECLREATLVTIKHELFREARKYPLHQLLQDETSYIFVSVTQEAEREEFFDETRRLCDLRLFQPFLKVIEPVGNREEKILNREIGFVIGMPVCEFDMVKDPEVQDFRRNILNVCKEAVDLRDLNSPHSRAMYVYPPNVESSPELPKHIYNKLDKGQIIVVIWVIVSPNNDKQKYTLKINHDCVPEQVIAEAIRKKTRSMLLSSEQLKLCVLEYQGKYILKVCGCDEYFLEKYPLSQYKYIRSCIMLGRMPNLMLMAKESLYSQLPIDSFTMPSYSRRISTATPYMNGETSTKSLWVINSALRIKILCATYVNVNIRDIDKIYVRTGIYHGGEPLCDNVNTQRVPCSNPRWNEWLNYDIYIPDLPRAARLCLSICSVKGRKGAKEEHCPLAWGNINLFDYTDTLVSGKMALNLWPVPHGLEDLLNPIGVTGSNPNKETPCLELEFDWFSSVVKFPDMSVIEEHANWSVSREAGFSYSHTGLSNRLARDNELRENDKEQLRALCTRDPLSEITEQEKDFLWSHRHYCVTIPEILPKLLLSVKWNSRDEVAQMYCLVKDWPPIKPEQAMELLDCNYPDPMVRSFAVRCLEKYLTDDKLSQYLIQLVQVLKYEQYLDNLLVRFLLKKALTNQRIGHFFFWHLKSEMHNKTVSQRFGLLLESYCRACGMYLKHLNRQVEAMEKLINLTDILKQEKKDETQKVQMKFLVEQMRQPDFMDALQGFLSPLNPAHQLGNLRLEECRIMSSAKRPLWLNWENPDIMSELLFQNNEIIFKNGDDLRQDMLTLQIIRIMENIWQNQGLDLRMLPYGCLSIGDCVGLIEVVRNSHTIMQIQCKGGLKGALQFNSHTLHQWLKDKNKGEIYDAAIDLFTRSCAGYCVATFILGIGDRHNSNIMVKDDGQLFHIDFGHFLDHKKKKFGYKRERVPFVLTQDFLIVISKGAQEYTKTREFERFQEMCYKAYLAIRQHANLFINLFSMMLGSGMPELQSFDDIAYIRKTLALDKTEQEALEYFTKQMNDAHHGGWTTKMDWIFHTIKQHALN", "procedure": "(§1) Biochemical in vitro lipid kinase assays were performed by the SelectScreen biochemical kinase assay service (Invitrogen Ltd.). A stock solution of GS-9820 was prepared in DMSO at a concentration of 10 mM. Ten-point kinase inhibitory activities were measured over a concentration range (5 to 10^4 nM) with ATP at a concentration consistent with the Km of each of the enzymes."}, "[2]": {"target": "Phosphatidylinositol 4-phosphate 5-kinase type-1 alpha (Mus musculus, UniProt P70182)", "sequence (P70182 whole entry)": "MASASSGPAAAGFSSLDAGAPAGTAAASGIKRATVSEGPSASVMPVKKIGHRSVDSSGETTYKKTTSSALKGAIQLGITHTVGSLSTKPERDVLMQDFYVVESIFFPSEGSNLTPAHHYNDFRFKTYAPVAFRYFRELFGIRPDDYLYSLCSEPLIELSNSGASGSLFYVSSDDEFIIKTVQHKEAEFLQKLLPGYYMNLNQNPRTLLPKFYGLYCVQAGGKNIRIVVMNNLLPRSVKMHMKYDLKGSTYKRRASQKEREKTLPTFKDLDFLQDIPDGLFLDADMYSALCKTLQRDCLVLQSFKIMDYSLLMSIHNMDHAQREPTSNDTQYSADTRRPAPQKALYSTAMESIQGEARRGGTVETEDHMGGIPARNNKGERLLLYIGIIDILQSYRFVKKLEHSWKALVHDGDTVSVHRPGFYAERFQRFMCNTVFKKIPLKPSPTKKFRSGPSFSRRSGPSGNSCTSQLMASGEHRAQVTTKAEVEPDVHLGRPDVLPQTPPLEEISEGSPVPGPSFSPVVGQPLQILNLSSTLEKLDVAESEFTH", "procedure": "as §1"}, "[3]": {"target": "T1, Phosphatidylinositol 4,5-bisphosphate 3-kinase catalytic subunit delta isoform (Mus musculus, UniProt O35904)", "T1 sequence (O35904 whole entry)": "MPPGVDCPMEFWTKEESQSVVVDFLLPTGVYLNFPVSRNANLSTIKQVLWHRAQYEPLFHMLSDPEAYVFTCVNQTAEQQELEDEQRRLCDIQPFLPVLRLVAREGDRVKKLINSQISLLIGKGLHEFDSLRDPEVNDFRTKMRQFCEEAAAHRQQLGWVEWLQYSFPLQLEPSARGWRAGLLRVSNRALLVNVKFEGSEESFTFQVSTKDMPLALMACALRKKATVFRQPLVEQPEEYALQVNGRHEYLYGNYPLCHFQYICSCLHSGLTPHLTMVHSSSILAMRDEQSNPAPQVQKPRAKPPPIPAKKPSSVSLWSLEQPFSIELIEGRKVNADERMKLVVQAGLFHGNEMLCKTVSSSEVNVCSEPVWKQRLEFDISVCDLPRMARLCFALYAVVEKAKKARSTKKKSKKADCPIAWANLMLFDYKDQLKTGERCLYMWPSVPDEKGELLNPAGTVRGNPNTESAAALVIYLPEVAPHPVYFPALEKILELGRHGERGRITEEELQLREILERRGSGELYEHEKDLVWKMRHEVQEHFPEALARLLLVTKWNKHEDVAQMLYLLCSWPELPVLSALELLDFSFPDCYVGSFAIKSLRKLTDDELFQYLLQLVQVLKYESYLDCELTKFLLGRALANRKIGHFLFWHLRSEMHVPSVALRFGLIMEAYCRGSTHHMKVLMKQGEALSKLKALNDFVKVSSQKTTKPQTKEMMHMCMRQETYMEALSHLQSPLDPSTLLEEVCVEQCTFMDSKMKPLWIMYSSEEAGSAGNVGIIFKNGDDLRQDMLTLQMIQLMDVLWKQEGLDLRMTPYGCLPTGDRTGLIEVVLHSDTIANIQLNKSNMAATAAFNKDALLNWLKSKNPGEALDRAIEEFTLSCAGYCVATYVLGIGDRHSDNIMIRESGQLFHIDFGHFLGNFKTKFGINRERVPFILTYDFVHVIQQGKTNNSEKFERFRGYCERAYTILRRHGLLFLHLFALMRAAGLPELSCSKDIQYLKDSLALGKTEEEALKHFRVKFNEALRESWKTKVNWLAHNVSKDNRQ", "procedure": "as §1"}, "[4]": {"target": "Phosphatidylinositol 4,5-bisphosphate 3-kinase catalytic subunit beta isoform (Mus musculus, UniProt Q8BTI9)", "sequence (Q8BTI9 whole entry, canonical isoform)": "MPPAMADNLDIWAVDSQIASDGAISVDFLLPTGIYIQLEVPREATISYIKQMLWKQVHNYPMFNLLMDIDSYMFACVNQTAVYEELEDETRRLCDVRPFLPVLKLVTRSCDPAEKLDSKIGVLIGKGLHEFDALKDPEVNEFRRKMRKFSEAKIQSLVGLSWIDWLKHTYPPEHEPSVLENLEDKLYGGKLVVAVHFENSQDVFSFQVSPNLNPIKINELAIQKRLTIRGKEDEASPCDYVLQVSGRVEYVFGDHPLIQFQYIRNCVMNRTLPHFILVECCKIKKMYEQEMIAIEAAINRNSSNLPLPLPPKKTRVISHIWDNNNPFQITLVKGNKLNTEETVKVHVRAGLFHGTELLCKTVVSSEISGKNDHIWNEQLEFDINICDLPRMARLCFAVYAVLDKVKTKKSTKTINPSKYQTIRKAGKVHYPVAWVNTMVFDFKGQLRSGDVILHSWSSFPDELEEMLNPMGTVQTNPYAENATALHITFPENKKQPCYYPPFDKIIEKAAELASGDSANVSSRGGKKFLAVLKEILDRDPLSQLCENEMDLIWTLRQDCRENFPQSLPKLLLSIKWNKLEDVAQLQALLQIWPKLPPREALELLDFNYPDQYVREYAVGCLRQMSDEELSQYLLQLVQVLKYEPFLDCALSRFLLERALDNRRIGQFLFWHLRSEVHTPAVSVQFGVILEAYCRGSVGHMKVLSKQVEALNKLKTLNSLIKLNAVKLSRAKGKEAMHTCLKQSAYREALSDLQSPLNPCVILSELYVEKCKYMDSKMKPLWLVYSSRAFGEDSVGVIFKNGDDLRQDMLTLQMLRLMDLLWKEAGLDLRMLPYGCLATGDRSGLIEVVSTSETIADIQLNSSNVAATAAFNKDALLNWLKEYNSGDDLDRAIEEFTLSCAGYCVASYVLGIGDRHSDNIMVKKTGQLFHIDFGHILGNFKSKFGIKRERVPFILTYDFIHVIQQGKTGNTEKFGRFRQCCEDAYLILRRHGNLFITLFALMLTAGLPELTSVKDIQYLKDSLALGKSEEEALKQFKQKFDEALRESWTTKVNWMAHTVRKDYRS", "procedure": "as §1"}, "[5]": {"target": "Phosphatidylinositol 4,5-bisphosphate 3-kinase catalytic subunit gamma isoform (Mus musculus, UniProt Q9JHG7)", "sequence (Q9JHG7 whole entry, canonical isoform)": "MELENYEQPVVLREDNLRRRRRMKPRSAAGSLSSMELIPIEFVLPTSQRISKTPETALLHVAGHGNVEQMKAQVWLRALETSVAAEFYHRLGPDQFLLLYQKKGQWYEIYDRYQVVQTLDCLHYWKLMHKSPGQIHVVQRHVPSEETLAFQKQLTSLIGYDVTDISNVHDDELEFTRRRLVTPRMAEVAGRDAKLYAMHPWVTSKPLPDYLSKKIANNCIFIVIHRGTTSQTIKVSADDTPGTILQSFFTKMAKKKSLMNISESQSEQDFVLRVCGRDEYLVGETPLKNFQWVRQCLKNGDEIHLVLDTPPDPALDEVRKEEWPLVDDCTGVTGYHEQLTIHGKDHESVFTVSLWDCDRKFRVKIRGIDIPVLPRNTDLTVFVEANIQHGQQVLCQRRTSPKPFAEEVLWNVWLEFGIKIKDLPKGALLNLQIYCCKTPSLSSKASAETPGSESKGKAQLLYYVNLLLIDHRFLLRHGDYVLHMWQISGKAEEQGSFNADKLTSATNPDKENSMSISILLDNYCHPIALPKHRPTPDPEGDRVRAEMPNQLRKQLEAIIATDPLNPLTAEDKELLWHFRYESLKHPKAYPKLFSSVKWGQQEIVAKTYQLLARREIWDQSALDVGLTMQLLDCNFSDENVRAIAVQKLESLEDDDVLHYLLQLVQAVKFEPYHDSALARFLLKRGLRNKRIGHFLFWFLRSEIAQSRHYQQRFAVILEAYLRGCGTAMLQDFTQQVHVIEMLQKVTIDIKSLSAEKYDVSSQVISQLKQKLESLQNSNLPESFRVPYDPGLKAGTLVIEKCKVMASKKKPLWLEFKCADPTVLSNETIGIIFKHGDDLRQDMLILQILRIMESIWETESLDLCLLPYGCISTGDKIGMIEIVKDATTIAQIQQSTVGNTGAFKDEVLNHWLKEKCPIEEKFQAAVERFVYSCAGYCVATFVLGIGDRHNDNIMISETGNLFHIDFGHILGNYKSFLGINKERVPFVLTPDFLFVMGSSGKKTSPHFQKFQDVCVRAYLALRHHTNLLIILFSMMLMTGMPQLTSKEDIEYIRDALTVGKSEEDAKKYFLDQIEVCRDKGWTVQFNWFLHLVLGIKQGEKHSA", "procedure": "as §1"}, "[6]": {"target": "Phosphatidylinositol 4-phosphate 5-kinase type-1 beta (Mus musculus, UniProt P70181)", "sequence (P70181 whole entry)": "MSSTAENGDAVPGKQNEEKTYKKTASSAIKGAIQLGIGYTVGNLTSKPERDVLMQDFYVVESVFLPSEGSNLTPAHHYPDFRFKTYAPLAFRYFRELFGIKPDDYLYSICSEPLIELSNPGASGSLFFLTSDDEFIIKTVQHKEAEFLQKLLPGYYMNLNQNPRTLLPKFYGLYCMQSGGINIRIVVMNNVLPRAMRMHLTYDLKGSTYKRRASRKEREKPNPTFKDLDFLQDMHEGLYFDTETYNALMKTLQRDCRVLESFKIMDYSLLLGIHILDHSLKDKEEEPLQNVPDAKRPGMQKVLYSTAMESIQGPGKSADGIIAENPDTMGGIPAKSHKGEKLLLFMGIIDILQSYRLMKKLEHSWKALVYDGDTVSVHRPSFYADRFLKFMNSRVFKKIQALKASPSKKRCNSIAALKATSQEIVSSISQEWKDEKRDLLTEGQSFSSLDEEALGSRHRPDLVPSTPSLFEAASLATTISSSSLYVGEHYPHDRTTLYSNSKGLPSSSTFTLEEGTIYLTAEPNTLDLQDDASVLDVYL", "procedure": "as §1"}, "[7]": {"target": "DNA-dependent protein kinase catalytic subunit (Mus musculus, UniProt P97313)", "procedure": "as §1"}}, "data": [{"compound": "C[C@H](Nc1ncnc2[nH]cnc12)c1nc2ccc(F)cc2c(=O)n1-c1ccccc1", "note": "[GS-9820]", "values": [{"measurement": "IC50", "setting": "[1]", "value": 5.44, "unit": "µM"}, {"measurement": "IC50", "setting": "[2]", "value": "> 10", "unit": "µM"}, {"measurement": "IC50", "setting": "[3]", "value": 0.0127, "unit": "µM"}, {"measurement": "IC50", "setting": "[4]", "value": 3.38, "unit": "µM"}, {"measurement": "IC50", "setting": "[5]", "value": 1.39, "unit": "µM"}, {"measurement": "IC50", "setting": "[6]", "value": "> 10", "unit": "µM"}, {"measurement": "IC50", "setting": "[7]", "value": 18.7, "unit": "µM"}]}]}
